From patent publication US8399676B2, “Piperidine derivatives” (Hoffman-La Roche Inc., priority 2009, dated 2013)
Counter-ions that a name gives are not always drawn.

Each compound was assayed against T1, human HSL (Homo sapiens, UniProt Q05469) (assay: Human Hormone-Sensitive Lipase (HSL) enzyme inhibition assay (colorimetric, DMPT substrate)). Settings: read-out: HSL hum IC50.
T1 construct: generate a full length human HSL ORF with a 3′-His6 tag; His6 (C); made in house; host or cells: High 5 insect cells (baculovirus, pFast-BAC)
T1 sequence (Q05469 1-1076): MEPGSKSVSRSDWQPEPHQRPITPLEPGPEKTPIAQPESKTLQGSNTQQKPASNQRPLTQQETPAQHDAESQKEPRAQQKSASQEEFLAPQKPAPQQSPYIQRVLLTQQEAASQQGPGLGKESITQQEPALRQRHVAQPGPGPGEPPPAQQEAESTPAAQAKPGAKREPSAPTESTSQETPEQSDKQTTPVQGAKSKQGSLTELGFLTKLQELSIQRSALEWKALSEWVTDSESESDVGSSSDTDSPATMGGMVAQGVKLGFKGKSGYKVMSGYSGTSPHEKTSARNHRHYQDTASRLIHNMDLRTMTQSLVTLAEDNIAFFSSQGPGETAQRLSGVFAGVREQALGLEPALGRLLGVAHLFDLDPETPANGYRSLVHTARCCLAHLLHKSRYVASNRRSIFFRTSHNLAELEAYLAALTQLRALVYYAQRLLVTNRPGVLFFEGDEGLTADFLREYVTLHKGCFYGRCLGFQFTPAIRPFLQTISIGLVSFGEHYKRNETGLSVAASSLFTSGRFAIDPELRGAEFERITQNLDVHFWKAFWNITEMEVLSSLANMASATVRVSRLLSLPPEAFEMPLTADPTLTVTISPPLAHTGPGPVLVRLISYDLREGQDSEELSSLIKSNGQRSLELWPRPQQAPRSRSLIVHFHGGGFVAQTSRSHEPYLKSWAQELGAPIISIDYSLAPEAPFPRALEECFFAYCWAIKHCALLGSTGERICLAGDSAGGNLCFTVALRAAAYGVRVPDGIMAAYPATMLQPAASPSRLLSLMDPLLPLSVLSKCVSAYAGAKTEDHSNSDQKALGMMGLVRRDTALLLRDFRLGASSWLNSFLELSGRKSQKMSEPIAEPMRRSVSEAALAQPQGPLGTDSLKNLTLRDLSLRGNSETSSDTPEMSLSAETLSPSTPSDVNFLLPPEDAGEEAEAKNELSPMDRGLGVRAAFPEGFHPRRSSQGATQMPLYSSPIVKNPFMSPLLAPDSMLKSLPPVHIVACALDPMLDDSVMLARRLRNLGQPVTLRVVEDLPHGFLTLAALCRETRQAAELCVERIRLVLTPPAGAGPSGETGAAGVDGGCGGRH
Assay type: biochemical
How it was run: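 Full-length human HSL carrying a C-terminal His6 tag was expressed in High 5 insect cells via baculovirus and purified on Ni-NTA. Compounds from 3-fold DMSO series were mixed with 1.5 mM DMPT substrate suspension in 100 mM MOPS pH 7.2 with 0.2 mg/ml fatty acid-free BSA, then enzyme (15 ug/ml) was added for 20 minutes at 37 °C. Released thiol was detected with DTNB plus SDS/Triton X-100 (15 minutes, room temperature) at 405 nm.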
In the case of `CC(C)c1ccc(NC(=O)C2(O)CCN(Cc3ccc(F)cc3)CC2)cc1` [Example 2, 1-(4-Fluoro-benzyl)-4-hydroxy-piperidine-4-carboxylic acid (4-isopropyl-phenyl)-amide], the IC50 is reported as 270 nM. `NC1(C(=O)Nc2ccc(OC(F)F)cc2)CCN(S(=O)(=O)c2ccccc2Cl)CC1` [Example 97, 4-Amino-1-(2-chloro-benzenesulfonyl)-piperidine-4-carboxylic acid (4-difluoromethoxy-phenyl)-amide] gave an IC50 of 90 nM. Compound `CCc1ccc(NC(=O)C2(N)CCN(S(=O)(=O)CC3CCCCC3)CC2)cc1` [Example 144, 4-Amino-1-cyclohexylmethanesulfonyl-piperidine-4-carboxylic acid (4-ethyl-phenyl)-amide] has an IC50 of 140 nM. Work on `CC(C)c1ccc(NC(=O)C2(N)CCN(C(=O)c3ccc(F)cc3)CC2)cc1` [Example 127, 4-Amino-1-(4-fluoro-benzoyl)-piperidine-4-carboxylic acid (4-isopropyl-phenyl)-amide] yielded an IC50 of 490 nM. Compound `O=C(Nc1ccc(OC(F)(F)F)cc1)C1(O)CCN(S(=O)(=O)CCC(F)(F)F)CC1` [Example 62, 4-Hydroxy-1-(3,3,3-trifluoro-propane-1-sulfonyl)-piperidine-4-carboxylic acid (4-trifluoromethoxy-phenyl)-amide] has an IC50 of 870 nM. `CCc1ccc(NC(=O)C2(N)CCN(Cc3ccccc3Cl)CC2)cc1` [Example 154, 4-Amino-1-(2-chloro-benzyl)-piperidine-4-carboxylic acid (4-ethyl-phenyl)-amide] showed an IC50 of 110 nM. For `CC(C)c1ccc(NC(=O)C2(N)CCN(Cc3ccccc3F)CC2)cc1` [Example 109, 4-Amino-1-(2-fluoro-benzyl)-piperidine-4-carboxylic acid (4-isopropyl-phenyl)-amide; hydrochloride], the IC50 was 80 nM. `CC(C)c1ccc(NC(=O)C2(N)CCN(C(=O)c3ccc(C(F)(F)F)nc3)CC2)cc1` [Example 130, 4-Amino-1-(6-trifluoromethyl-pyridine-3-carbonyl)-piperidine-4-carboxylic acid (4-isopropyl-phenyl)-amide] gave an IC50 of 520 nM. Compound `Cc1ccc(S(=O)(=O)N2CCC(O)(C(=O)Nc3ccc(OC(F)(F)F)cc3)CC2)cc1` [Example 60, 4-Hydroxy-1-(toluene-4-sulfonyl)-piperidine-4-carboxylic acid (4-trifluoromethoxy-phenyl)-amide] has an IC50 of 220 nM. Compound `Cc1ccc(S(=O)(=O)N2CCC(O)(C(=O)Nc3ccc(C(C)C)cc3)CC2)cc1` [Example 5, 4-Hydroxy-1-(toluene-4-sulfonyl)-piperidine-4-carboxylic acid (4-isopropyl-phenyl)-amide] has an IC50 of 210 nM. In the case of `Cc1ccccc1S(=O)(=O)N1CCC(N)(C(=O)Nc2ccc(C(C)C)cc2)CC1` [Example 119, 4-Amino-1-(toluene-2-sulfonyl)-piperidine-4-carboxylic acid (4-isopropyl-phenyl)-amide], the IC50 is reported as 60 nM. `CCc1ccc(NC(=O)C2(N)CCN(Cc3ccccc3OC(F)(F)F)CC2)cc1` [Example 156, 4-Amino-1-(2-trifluoromethoxy-benzyl)-piperidine-4-carboxylic acid (4-ethyl-phenyl)-amide] was tested, and the IC50 was 80 nM. For `CNC1(C(=O)Nc2ccc(OC(F)(F)F)cc2)CCN(S(=O)(=O)c2ccc(C)cc2)CC1` [Example 160, 4-Methylamino-1-(toluene-4-sulfonyl)-piperidine-4-carboxylic acid (4-trifluoromethoxy-phenyl)-amide], the IC50 was 100 nM. For `Cc1ccc(NC(=O)C2(N)CCN(C(=O)Nc3ccc(C(C)(C)C)cc3)CC2)cc1` [Example 88, 4-Amino-piperidine-1,4-dicarboxylic acid 1-[(4-tert-butyl-phenyl)-amide]-4-p-tolylamide; hydrochloride], the IC50 was 370 nM. In the case of `CC(C)(C)c1ccc(NC(=O)C2(O)CCN(Cc3ccccc3)CC2)cc1` [Example 3, 1-Benzyl-4-hydroxy-piperidine-4-carboxylic acid (4-tert-butyl-phenyl)-amide], the IC50 is reported as 390 nM. Compound `CC(C)c1ccc(NC(=O)C2(O)CCN(Cc3ccccc3)CC2)cc1` [Example 1, 1-Benzyl-4-hydroxy-piperidine-4-carboxylic acid (4-isopropyl-phenyl)-amide] has an IC50 of 460 nM. Work on `CC(C)Oc1ccc(NC(=O)C2(N)CCN(S(=O)(=O)c3ccccc3Cl)CC2)cc1` [Example 96, 4-Amino-1-(2-chloro-benzenesulfonyl)-piperidine-4-carboxylic acid (4-isopropoxy-phenyl)-amide] yielded an IC50 of 50 nM. For `CC(C)c1ccc(NC(=O)N2CCC(N)(C(=O)Nc3ccc(C(C)C)cc3)CC2)cc1` [Example 107, 4-Amino-piperidine-1,4-dicarboxylic acid bis-[(4-isopropyl-phenyl)-amide]; hydrochloride], the IC50 was 80 nM. `Cc1ccc(S(=O)(=O)N2CCC(N)(C(=O)Nc3ccc(OC(C)C)cc3)CC2)cc1` [Example 79, 4-Amino-1-(toluene-4-sulfonyl)-piperidine-4-carboxylic acid (4-isopropoxy-phenyl)-amide; hydrochloride] was tested, and the IC50 was 130 nM. `CC(C)c1ccc(NC(=O)C2(N)CCN(C(=O)Nc3ccc(OC(F)(F)F)cc3)CC2)cc1` [Example 85, 4-Amino-piperidine-1,4-dicarboxylic acid 4-[(4-isopropyl-phenyl)-amide]1-[(4-trifluoromethoxy-phenyl)-amide]; hydrochloride] showed an IC50 of 120 nM. With `CN(C(=O)C1(O)CCN(S(=O)(=O)c2ccccc2F)CC1)c1ccc(OC(F)(F)F)cc1` [Example 70, 1-(2-Fluoro-benzenesulfonyl)-4-hydroxy-piperidine-4-carboxylic acid methyl-(4-trifluoromethoxy-phenyl)-amide] the IC50 was 90 nM. `Cc1ccccc1S(=O)(=O)N1CCC(O)(C(=O)Nc2ccc(OC(F)(F)F)cc2)CC1` [Example 59, 4-Hydroxy-1-(toluene-2-sulfonyl)-piperidine-4-carboxylic acid (4-trifluoromethoxy-phenyl)-amide] showed an IC50 of 290 nM. `CC(C)CC(=O)N1CCC(N)(C(=O)Nc2ccc(C(C)C)cc2)CC1` [Example 128, 4-Amino-1-(3-methyl-butyryl)-piperidine-4-carboxylic acid (4-isopropyl-phenyl)-amide] showed an IC50 of 660 nM. For `CCc1ccc(NC(=O)C2(N)CCN(Cc3ccccc3)CC2)cc1` [Example 151, 4-Amino-1-benzyl-piperidine-4-carboxylic acid (4-ethyl-phenyl)-amide], the IC50 was 540 nM. Compound `COc1ccc(OC)c(NC(=O)N2CCC(O)(C(=O)Nc3ccc(C(C)(C)C)cc3)CC2)c1` [Example 49, 4-Hydroxy-piperidine-1,4-dicarboxylic acid 4-[(4-tert-butyl-phenyl)-amide] 1-[(2,5-dimethoxy-phenyl)-amide]] has an IC50 of 660 nM. In the case of `CCc1ccc(NC(=O)C2(N)CCN(S(=O)(=O)c3ccc(OC(F)(F)F)cc3)CC2)cc1` [Example 138, 4-Amino-1-(4-trifluoromethoxy-benzenesulfonyl)-piperidine-4-carboxylic acid (4-ethyl-phenyl)-amide], the IC50 is reported as 310 nM. `CN(C(=O)C1(O)CCN(S(=O)(=O)c2ccccc2Cl)CC1)c1ccc(OC(F)(F)F)cc1` [Example 72, 1-(2-Chloro-benzenesulfonyl)-4-hydroxy-piperidine-4-carboxylic acid methyl-(4-trifluoromethoxy-phenyl)-amide] was tested, and the IC50 was 60 nM. `CC(C)c1ccc(NC(=O)C2(N)CCN(Cc3cccc(F)c3)CC2)cc1` [Example 111, 4-Amino-1-(3-fluoro-benzyl)-piperidine-4-carboxylic acid (4-isopropyl-phenyl)-amide; hydrochloride] was tested, and the IC50 was 240 nM. For `CC(C)c1ccc(NC(=O)C2(N)CCN(S(=O)(=O)c3ccccc3F)CC2)cc1` [Example 118, 4-Amino-1-(2-fluoro-benzenesulfonyl)-piperidine-4-carboxylic acid (4-isopropyl-phenyl)-amide], the IC50 was 40 nM. Work on `CC(C)c1ccc(NC(=O)C2(N)CCN(S(=O)(=O)c3ccccc3Cl)CC2)cc1` [Example 116, 4-Amino-1-(2-chloro-benzenesulfonyl)-piperidine-4-carboxylic acid (4-isopropyl-phenyl)-amide; hydrochloride] yielded an IC50 of 40 nM.
